Laboratory results reported in ChEMBL document CHEMBL5380821, “Discovery of a PDZ Domain Inhibitor Targeting the Syndecan/Syntenin Protein-Protein Interaction: A Semi-Automated "Hit Identification-to-Optimization" Approach” (J Med Chem, 2023).
The source made the active and inactive calls. No cut-off for these calls is given here.

Assays:
Syntenin-1/Syndecan-2 = Syntenin-1/Syndecan-2 (Homo sapiens, UniProt O00560); assay: Inhibition of full length N-terminal GST-tagged human syntenin-1 expressed in Escherichia coli ER2566/syndecan2 (unknown origin) interaction incubated for 16 hrs by HTRF assay
[1] = molecular target: T1, Syntenin-1/Syndecan-2 (Homo sapiens) (UniProt O00560+P34741); assay: Inhibition of full length N-terminal GST-tagged human syntenin-1 expressed in Escherichia coli ER2566/syndecan2 (unknown origin) interaction at 200 uM incubated for 16 hrs by HTRF assay relative to control
[2] = molecular target: GRASP55-JAMB (Homo sapiens) (UniProt Q9H8Y8+P57087); assay: Inhibition of N-terminal GST-tagged GRASP55 (unknown origin) expressed in Escherichia coli BL21 (DE3) cells/JAM-B (unknown origin) complex incubated for 16 hrs by HTRF assay
[3] = molecular target: ERBIN-P0071 (Homo sapiens) (UniProt Q96RT1+Q99569); assay: Inhibition of N-terminal GST-tagged Erbin (unknown origin) expressed in Escherichia coli BL21 (DE3) cells/P0071 (unknown origin) complex incubated for 16 hrs by HTRF assay
Syntenin-1 = molecular target: T2, Syntenin-1 (Homo sapiens, UniProt O00560); assay: Binding affinity to full length N-terminal GST-tagged human syntenin-1 expressed in Escherichia coli ER2566 assessed as dissociation constant by ITC analysis
T2 sequence (O00560 whole entry): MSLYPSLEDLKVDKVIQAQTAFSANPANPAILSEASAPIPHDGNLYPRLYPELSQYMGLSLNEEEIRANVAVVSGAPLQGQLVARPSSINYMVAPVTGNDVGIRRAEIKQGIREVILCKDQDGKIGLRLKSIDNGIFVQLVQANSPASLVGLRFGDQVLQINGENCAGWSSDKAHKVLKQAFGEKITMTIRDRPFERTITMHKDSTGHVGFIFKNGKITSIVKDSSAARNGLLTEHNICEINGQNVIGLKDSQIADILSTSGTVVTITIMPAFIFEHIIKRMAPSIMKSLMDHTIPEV

MDA-MB-231 [4] = assay: Cytotoxicity against wild-type human MDA-MB-231 cells assessed as reduction in cell viability upto 100 uM measured after 48 hrs by Annexin V-FITC staining based flow cytometric analysis; type: functional
MDA-MB-231 [5] = assay: Cytotoxicity against human MDA-MB-231 cells with syntenin CRISPR/Cas9 knockout assessed as reduction in cell viability upto 100 uM measured after 48 hrs by Annexin V-FITC staining based flow cytometric analysis; type: functional
MDA-MB-231 [6] = assay: Inhibition of cell migration in wild-type human MDA-MB-231 cells assessed as decrease in migration speed at 100 uM incubated for 24 hrs by 2D phase contrast video microscopic analysis; type: functional, cell-based
MDA-MB-231 [7] = assay: Inhibition of cell migration in wild-type human MDA-MB-231 cells assessed as decrease in euclidean distance at 100 uM incubated for 24 hrs by 2D phase contrast video microscopic analysis; type: functional, cell-based
MDA-MB-231 [8] = assay: Inhibition of cell migration in human MDA-MB-231 cells with syntenin CRISPR/Cas9 knockout assessed as decrease in migration speed at 100 uM incubated for 24 hrs by 2D phase contrast video microscopic analysis; type: functional, cell-based
MDA-MB-231 [9] = assay: Inhibition of cell migration in human MDA-MB-231 cells with syntenin CRISPR/Cas9 knockout assessed as decrease in euclidean distance at 100 uM incubated for 24 hrs by 2D phase contrast video microscopic analysis; type: functional, cell-based
MDA-MB-231 [10] = assay: Inhibition of cell migration in wild-type human MDA-MB-231 cells assessed as decrease in migration speed at 1 to 10 uM incubated for 24 hrs by 2D phase contrast video microscopic analysis; type: functional, cell-based; conditions: dose 1-10 µM
MDA-MB-231 [11] = assay: Inhibition of cell migration in wild-type human MDA-MB-231 cells assessed as decrease in euclidean distance at 1 to 10 uM incubated for 24 hrs by 2D phase contrast video microscopic analysis; type: functional, cell-based; conditions: dose 1-10 µM
[12] = molecular target: T1, Syntenin-1/Syndecan-2 (Homo sapiens); assay: Inhibition of full length N-terminal GST-tagged human syntenin-1 expressed in Escherichia coli ER2566/syndecan2 (unknown origin) interaction at 200 uM incubated for 16 hrs in the presence of NP-40 by HTRF assay

Sequence of Syntenin-1/Syndecan-2 (P34741 whole entry, one chain of several, further chain): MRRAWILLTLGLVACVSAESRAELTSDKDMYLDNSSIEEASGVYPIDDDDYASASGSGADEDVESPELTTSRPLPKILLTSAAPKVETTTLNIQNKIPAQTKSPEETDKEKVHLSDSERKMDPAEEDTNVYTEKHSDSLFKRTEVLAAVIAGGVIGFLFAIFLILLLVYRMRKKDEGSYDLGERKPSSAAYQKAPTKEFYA
Sequence of GRASP55-JAMB (Homo sapiens) (P57087 whole entry, looked up, other chains not shown): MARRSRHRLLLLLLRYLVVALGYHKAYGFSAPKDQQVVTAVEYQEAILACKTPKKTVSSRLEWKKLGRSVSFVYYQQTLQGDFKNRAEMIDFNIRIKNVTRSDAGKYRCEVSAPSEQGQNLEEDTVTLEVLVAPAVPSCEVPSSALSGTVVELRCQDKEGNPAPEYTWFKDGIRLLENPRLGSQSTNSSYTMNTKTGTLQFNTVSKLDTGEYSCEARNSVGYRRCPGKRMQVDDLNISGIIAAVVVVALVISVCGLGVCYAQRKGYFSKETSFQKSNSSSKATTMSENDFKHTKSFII
Sequence of ERBIN-P0071 (Homo sapiens) (Q96RT1 whole entry, looked up): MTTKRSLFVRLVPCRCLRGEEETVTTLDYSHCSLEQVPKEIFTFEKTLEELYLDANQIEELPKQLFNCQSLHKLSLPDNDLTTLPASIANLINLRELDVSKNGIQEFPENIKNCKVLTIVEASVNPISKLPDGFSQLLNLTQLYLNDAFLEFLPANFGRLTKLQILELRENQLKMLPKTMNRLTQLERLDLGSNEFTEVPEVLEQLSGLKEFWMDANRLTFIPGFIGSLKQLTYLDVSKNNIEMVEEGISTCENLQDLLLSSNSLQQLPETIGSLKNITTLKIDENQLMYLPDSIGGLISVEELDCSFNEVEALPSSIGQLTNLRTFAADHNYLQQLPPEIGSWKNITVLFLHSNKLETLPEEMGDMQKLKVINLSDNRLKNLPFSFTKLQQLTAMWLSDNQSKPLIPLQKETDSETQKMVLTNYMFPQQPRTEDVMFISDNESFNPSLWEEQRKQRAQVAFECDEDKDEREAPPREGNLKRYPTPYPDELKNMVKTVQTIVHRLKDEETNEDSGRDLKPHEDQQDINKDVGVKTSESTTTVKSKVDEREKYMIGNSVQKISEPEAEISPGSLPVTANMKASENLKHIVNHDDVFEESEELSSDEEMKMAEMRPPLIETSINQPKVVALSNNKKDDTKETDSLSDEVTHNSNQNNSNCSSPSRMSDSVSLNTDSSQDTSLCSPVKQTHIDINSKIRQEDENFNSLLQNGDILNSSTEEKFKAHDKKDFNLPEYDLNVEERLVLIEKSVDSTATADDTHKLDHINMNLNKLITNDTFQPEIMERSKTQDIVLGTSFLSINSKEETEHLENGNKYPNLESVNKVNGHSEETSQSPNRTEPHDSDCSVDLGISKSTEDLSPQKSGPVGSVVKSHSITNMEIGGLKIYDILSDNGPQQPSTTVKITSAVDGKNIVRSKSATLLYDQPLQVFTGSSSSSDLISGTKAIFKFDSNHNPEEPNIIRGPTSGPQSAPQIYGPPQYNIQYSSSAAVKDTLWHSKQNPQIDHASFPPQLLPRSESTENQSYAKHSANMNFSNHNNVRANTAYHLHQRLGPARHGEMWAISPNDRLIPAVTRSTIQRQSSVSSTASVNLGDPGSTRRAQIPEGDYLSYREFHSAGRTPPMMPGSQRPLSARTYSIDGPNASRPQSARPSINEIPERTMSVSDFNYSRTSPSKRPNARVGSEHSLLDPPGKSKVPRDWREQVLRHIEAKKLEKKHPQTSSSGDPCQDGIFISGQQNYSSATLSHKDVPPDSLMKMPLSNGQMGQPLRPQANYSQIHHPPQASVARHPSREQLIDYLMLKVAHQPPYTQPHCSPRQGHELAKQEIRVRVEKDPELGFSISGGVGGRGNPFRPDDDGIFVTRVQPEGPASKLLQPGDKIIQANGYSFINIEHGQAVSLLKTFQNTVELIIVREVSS
Sequence of ERBIN-P0071 (Homo sapiens) (Q99569 whole entry, looked up): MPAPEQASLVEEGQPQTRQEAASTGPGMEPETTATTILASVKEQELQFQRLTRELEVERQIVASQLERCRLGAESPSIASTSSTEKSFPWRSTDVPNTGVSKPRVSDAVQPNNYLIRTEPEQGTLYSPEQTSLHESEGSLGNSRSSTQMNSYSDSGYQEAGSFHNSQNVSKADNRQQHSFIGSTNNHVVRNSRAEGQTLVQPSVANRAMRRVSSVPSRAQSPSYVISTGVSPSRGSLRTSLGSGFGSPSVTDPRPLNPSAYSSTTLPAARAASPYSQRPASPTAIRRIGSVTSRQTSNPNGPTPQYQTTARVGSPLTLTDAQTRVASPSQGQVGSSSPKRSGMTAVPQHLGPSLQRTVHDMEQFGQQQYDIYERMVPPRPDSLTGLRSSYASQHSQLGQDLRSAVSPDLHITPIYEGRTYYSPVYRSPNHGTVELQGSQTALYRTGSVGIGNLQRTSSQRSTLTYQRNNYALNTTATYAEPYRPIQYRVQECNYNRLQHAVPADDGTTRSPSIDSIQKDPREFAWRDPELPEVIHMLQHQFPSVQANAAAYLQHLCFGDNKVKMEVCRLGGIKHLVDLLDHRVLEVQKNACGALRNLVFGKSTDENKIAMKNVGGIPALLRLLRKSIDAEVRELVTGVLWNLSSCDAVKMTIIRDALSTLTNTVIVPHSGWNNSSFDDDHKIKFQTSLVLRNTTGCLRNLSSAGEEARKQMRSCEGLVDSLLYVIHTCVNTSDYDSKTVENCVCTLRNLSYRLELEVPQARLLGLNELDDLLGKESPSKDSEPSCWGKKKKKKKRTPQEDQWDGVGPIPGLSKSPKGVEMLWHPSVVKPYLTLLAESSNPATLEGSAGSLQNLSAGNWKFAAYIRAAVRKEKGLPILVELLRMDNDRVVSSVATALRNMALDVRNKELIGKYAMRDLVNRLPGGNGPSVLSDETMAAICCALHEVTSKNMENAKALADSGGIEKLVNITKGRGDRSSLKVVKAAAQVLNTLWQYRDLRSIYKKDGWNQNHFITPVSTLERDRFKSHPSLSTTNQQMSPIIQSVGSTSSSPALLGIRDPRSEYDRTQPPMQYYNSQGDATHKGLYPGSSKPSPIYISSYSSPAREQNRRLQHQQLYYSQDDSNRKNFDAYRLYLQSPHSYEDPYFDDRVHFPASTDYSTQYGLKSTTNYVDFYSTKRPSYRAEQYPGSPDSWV

| SMILES | IC50 (Syntenin-1/Syndecan-2) | other results |
| --- | --- | --- |
| CC(C)C[C@@H](C(=O)N[C@@H](C)C(=O)O)N1Cc2ccccc2C1=O | 213 µM |  |
| C[C@H](NC(=O)[C@H](Cc1ccc(O)cc1)N1Cc2ccccc2C1=O)C(=O)O | 44 µM |  |
| CCOC(=O)C(Cc1c[nH]c2ccccc12)NC(=O)C(Cc1ccccc1)N1C(=O)c2ccccc2C1=O (centres undefined) |  | inhibition [1]: > 60% |
| CC(Oc1ccc(-c2cc(N)nc3[nH]ccc23)cc1Cl)C(=O)O (centres undefined) |  | inhibition [1]: > 60% |
| COc1ccccc1NC(=O)N1CCCC(c2nc(O)c3nnn(Cc4ccc(C)cc4)c3n2)C1 (centres undefined) |  | inhibition [1]: > 60% |
| C[C@H](NC(=O)[C@H](Cc1ccccc1)N1Cc2ccccc2C1=O)C(=O)O | 67 µM |  |
| C[C@H](NC(=O)[C@H](Cc1ccc(-c2ccc3c(c2)C(=O)N(C)C3)cc1)N1Cc2ccccc2C1=O)C(=O)O | 6.3 µM |  |
| C[C@H](NC(=O)[C@H](Cc1ccc(-c2cc(CO)ccc2F)cc1)N1Cc2ccccc2C1=O)C(=O)O | 5.3 µM |  |
| CC(C)[C@@H](C(=O)N[C@@H](Cc1ccccc1)C(=O)O)N1Cc2ccccc2C1=O | > 500 µM |  |
| CC(C)C[C@@H](C(=O)N[C@H](C(=O)O)C(C)C)N1Cc2ccccc2C1=O | > 500 µM |  |
| CC(C)[C@@H](C(=O)N[C@@H](C)C(=O)O)N1Cc2cc(Br)ccc2C1=O | 20 µM |  |
| CC[C@H](C)[C@H](NC(=O)[C@H](Cc1ccccc1)N1Cc2ccccc2C1=O)C(=O)O | > 500 µM |  |
| CC[C@H](C)[C@H](NC(=O)[C@H](C(C)C)N1Cc2ccccc2C1=O)C(=O)O | > 500 µM |  |
| COc1cc2cc(C(=O)N(C)CCOc3cccc(Cl)c3)[nH]c2c(OC)c1OC |  | inhibition [1]: > 60% |
| CC(C)C[C@H](NC(=O)[C@H](Cc1ccccc1)N1Cc2ccccc2C1=O)C(=O)O | > 500 µM |  |
| CC(=O)Nc1ccc(-c2ccc(C[C@@H](C(=O)N[C@@H](C)C(=O)O)N3Cc4cc(Br)ccc4C3=O)cc2)cc1 | 0.82 µM |  |
| C[C@H](NC(=O)[C@H](Cc1ccccc1)NC(=O)c1cc2cc(Cl)ccc2n1C)C(=O)O |  | inhibition [1]: > 60% |
| C[C@H](NC(=O)C(CSCc1ccccc1)N1Cc2ccccc2C1=O)C(=O)O (single isomer, unassigned) | 63 µM |  |
| CC(C)C[C@H](NC(=O)[C@H](CC(C)C)N1Cc2ccccc2C1=O)C(=O)O | > 500 µM |  |
| CC(C)C[C@H](NC(=O)[C@H](C(C)C)N1Cc2ccccc2C1=O)C(=O)O | > 500 µM |  |
| C[C@H](NC(=O)[C@H](Cc1ccc(C#N)cc1)N1Cc2ccccc2C1=O)C(=O)O | 180 µM |  |
| CC(=O)c1ccc(F)c(-c2ccc(C[C@@H](C(=O)N[C@@H](C)C(=O)O)N3Cc4cc(Br)ccc4C3=O)cc2)c1 | 0.4 µM | inhibition [2]: inactive; inhibition [3]: inactive; Kd (Syntenin-1): 1.8 µM; Activity (MDA-MB-231 [4]): inactive; Activity (MDA-MB-231 [5]): inactive; inhibition (MDA-MB-231 [6]): Active; inhibition (MDA-MB-231 [7]): Active; inhibition (MDA-MB-231 [8]): inactive; inhibition (MDA-MB-231 [9]): inactive; inhibition (MDA-MB-231 [10]): Active; inhibition (MDA-MB-231 [11]): Active |
| C[C@H](NC(=O)[C@H](Cc1c[nH]c2ccccc12)N1Cc2ccccc2C1=O)C(=O)O | 33 µM |  |

| SMILES | IC50 (Syntenin-1/Syndecan-2) | other results |
| --- | --- | --- |
| CC(C)[C@@H](C(=O)N[C@@H](C)C(=O)O)N1Cc2cc(Cl)ccc2C1=O | 14 µM |  |
| C[C@H](NC(=O)[C@H](Cc1ccc(Cl)cc1)N1Cc2ccccc2C1=O)C(=O)O | 78 µM |  |
| COc1ccc(C[C@@H](C(=O)N[C@@H](C)C(=O)O)N2Cc3ccccc3C2=O)cc1 | 128 µM |  |
| CC(C)C[C@@H](C(=O)N[C@@H](Cc1ccccc1)C(=O)O)N1Cc2ccccc2C1=O | > 500 µM |  |
| Cc1ccc(C[C@@H](C(=O)N[C@@H](C)C(=O)O)N2Cc3ccccc3C2=O)cc1 | > 200 µM |  |
| C[C@H](NC(=O)[C@H](Cc1ccc2ccccc2c1)N1Cc2ccccc2C1=O)C(=O)O | 13 µM |  |
| CC[C@H](C)[C@H](NC(=O)[C@H](CC(C)C)N1Cc2ccccc2C1=O)C(=O)O | > 500 µM |  |
| C[C@H](NC(=O)[C@H](Cc1ccc(-c2ccc3occc(=O)c3c2)cc1)N1Cc2ccccc2C1=O)C(=O)O | 4 µM |  |
| C[C@H](NC(=O)[C@H](Cc1ccc(Br)cc1)N1Cc2ccccc2C1=O)C(=O)O | 35 µM |  |
| CC(C)[C@@H](C(=O)N[C@@H](C)C(=O)O)N1Cc2c(Cl)cccc2C1=O | > 200 µM |  |
| CC(C)[C@@H](C(=O)N[C@@H](C)C(=O)O)N1Cc2ccccc2C1=O | 76 µM | inhibition [2]: inactive; inhibition [3]: inactive; Activity (MDA-MB-231 [4]): inactive; Activity (MDA-MB-231 [5]): inactive; inhibition (MDA-MB-231 [6]): Active; inhibition (MDA-MB-231 [7]): Active; inhibition (MDA-MB-231 [8]): inactive; inhibition (MDA-MB-231 [9]): inactive; inhibition [1]: > 60%; inhibition [12]: Active |
| CCOc1nc2ccccc2nc1N1CCCC(C(=O)N2CCc3ccccc3C2)C1 (centres undefined) |  | inhibition [1]: > 60% |
| CC(C)[C@H](NC(=O)[C@H](C(C)C)N1Cc2ccccc2C1=O)C(=O)O | > 500 µM |  |
| C[C@H](NC(=O)[C@H](Cc1ccc(-c2ccccc2F)cc1)N1Cc2ccccc2C1=O)C(=O)O | 9.9 µM |  |
| CCOc1ccc2[nH]c(=O)c(CN(C3CCCCC3)C(CC)c3nnnn3C(C)(C)C)cc2c1 (centres undefined) |  | inhibition [1]: > 60% |
| CC(C)[C@H](NC(=O)[C@H](Cc1ccccc1)N1Cc2ccccc2C1=O)C(=O)O | > 500 µM | inhibition (MDA-MB-231 [6]): Active; inhibition (MDA-MB-231 [7]): Active |
| O=C(O)[C@H](Cc1ccccc1)NC(=O)[C@H](Cc1ccccc1)N1Cc2ccccc2C1=O | > 500 µM |  |
| C[C@H](NC(=O)[C@H](Cc1ccc(-c2cc(CO)ccc2F)cc1)N1Cc2cc(Br)ccc2C1=O)C(=O)O | 1.5 µM |  |
| COc1ccc(F)c(-c2ccc(C[C@@H](C(=O)N[C@@H](C)C(=O)O)N3Cc4ccccc4C3=O)cc2)c1 | 10 µM |  |
| CC(C)[C@@H](C(=O)N[C@@H](C)C(=O)O)N1Cc2ccc(Br)cc2C1=O | > 200 µM |  |
| CC(=O)c1ccc(F)c(-c2ccc(C[C@@H](C(=O)N[C@@H](C)C(=O)O)N3Cc4ccccc4C3=O)cc2)c1 | 4.2 µM |  |
| CC(=O)Nc1ccc(-c2ccc(C[C@@H](C(=O)N[C@@H](C)C(=O)O)N3Cc4ccccc4C3=O)cc2)cc1 | 7.7 µM |  |
| C[C@H](NC(=O)[C@H](Cc1ccc2ccccc2c1)N1Cc2cc(Br)ccc2C1=O)C(=O)O | 5.2 µM |  |
